In the supplement of paper PMC6045584:
± gives the standard deviation of the averaged measurements.

These test systems were tested with COCC[n+]1c2c(n(Cc3cnccn3)c1C)C(=O)c1ccccc1C2=O [YM155] (assay: surviving fraction relative to DMSO-only wells; higher = less growth inhibition). Conditions: 500 nM; exposure time: 5 days.
In short: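 At 250–500 cells per well in 384-well plates, log-phase tumour cell lines were seeded and, 24 hours on, exposed continuously for five days to inhibitors at 0.5, 1, 5, 10, 50, 100, 500 and 1000 nM. Viability readout was CellTiter-Glo luminescence, reported as surviving fraction normalised to the median of DMSO-only wells.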

Point of comparison: ZR751 BREAST, surviving fraction 0.0307 ± 0.0055. Against it:
- CAL51 BREAST — lower, 0.019 ± 0.00087
- OSHN BONE — lower, 0.0203 ± 0.00058
- MCF7 BREAST — lower, 0.0207 ± 0.00033
- HT1080 SOFT TISSUE — within error, 0.0277 ± 0.00058
- MDAMB157 BREAST — within error, 0.0297 ± 0.0047
- 143B BONE — lower, 0.022 ± 0.0014
- SIHA CERVIX — lower, 0.0197 ± 0.00058
- MDAMB134 BREAST — higher, 0.567 ± 0.0014
- SG32 HEADNECK — lower, 0.0197 ± 0.0021
- NCIH441 LUNG — lower, 0.023 ± 0.001
- SG31 HEADNECK — higher, 0.0993 ± 0.037
- OS25HAL BONE — lower, 0.0193 ± 0.00058
- HCC1954 BREAST — within error, 0.0335 ± 0.00071
- VP229 BREAST — within error, 0.046 ± 0.01
- 22RV1 PROSTATE — within error, 0.101 ± 0.14
- MDAMB231 BREAST — within error, 0.0302 ± 0.00043
- RDES SOFT TISSUE — within error, 0.036 ± 0.002
- LM7 BONE — lower, 0.0197 ± 0.00058
- HMT3552 BREAST — higher, 0.0473 ± 0.0035
- SNU475 LIVER — within error, 0.0263 ± 0.00058
- HCC38 BREAST — within error, 0.0247 ± 0.0021
- HU09 BONE — higher, 0.161 ± 0.0055
- ASKA SYNOVIAL — higher, 0.194 ± 0.011
- CADOES1 SOFT TISSUE — higher, 0.852 ± 0.054
- SAOS2 BONE — lower, 0.0223 ± 0.00058
- MDAMB436 BREAST — within error, 0.0377 ± 0.0074
- 93VU HEADNECK — higher, 0.193 ± 0.011
- KPD BONE — within error, 0.0237 ± 0.0025
- SYO1 SYNOVIAL — lower, 0.0242 ± 0.00051
- BT20 BREAST — lower, 0.019 ± 0.002
- SUM44 BREAST — higher, 0.121 ± 0.049
- CAL120 BREAST — lower, 0.016 ± 0.00087
- CHLA90 AUTONOMIC GANGLIA — within error, 0.025 ± 0.0027
- HCC1806 BREAST — lower, 0.024
- HCC78 LUNG — lower, 0.016
- MFM223 BREAST — within error, 0.116 ± 0.16
- SG43 HEADNECK — higher, 0.159 ± 0.058
- HOS BONE — lower, 0.0193 ± 0.00058
- MDAMB468 BREAST — within error, 0.0353 ± 0.0065
- SG27 HEADNECK — within error, 0.0367 ± 0.02

Same assay, conditions: 1000 nM; exposure time: 5 days

Point of comparison: SG32 HEADNECK, surviving fraction 0.0227 ± 0.0011. Against it:
- CAL51 BREAST — within error, 0.024 ± 0.0005
- OSHN BONE — higher, 0.027 ± 0.0017
- MCF7 BREAST — within error, 0.0226 ± 0.0014
- HT1080 SOFT TISSUE — higher, 0.0297 ± 0.00058
- MDAMB157 BREAST — higher, 0.039 ± 0.0046
- 143B BONE — higher, 0.0265 ± 0.00071
- SIHA CERVIX — within error, 0.0243 ± 0.0015
- MDAMB134 BREAST — higher, 0.435 ± 0.064
- NCIH441 LUNG — higher, 0.0267 ± 0.0011
- SG31 HEADNECK — higher, 0.104 ± 0.064
- OS25HAL BONE — higher, 0.0267 ± 0.0021
- HCC1954 BREAST — higher, 0.0333 ± 0.0053
- VP229 BREAST — higher, 0.042 ± 0.007
- 22RV1 PROSTATE — within error, 0.121 ± 0.16
- MDAMB231 BREAST — higher, 0.0372 ± 0.0043
- RDES SOFT TISSUE — higher, 0.0367 ± 0.0021
- LM7 BONE — within error, 0.025 ± 0.0017
- HMT3552 BREAST — higher, 0.0537 ± 0.00058
- SNU475 LIVER — higher, 0.0303 ± 0.0015
- HCC38 BREAST — higher, 0.0297 ± 0.0011
- HU09 BONE — higher, 0.0983 ± 0.0055
- ASKA SYNOVIAL — higher, 0.243 ± 0.017
- CADOES1 SOFT TISSUE — higher, 0.881 ± 0.064
- SAOS2 BONE — higher, 0.0293 ± 0.00058
- MDAMB436 BREAST — higher, 0.0453 ± 0.013
- 93VU HEADNECK — higher, 0.123 ± 0.027
- KPD BONE — within error, 0.0257 ± 0.0021
- SYO1 SYNOVIAL — higher, 0.0279 ± 0.0021
- BT20 BREAST — higher, 0.027 ± 0.002
- SUM44 BREAST — higher, 0.125 ± 0.064
- CAL120 BREAST — within error, 0.023 ± 0.0017
- CHLA90 AUTONOMIC GANGLIA — higher, 0.0273 ± 0.0015
- HCC1806 BREAST — higher, 0.0257 ± 0.0015
- HCC78 LUNG — lower, 0.0187 ± 0.0025
- MFM223 BREAST — within error, 0.138 ± 0.18
- SG43 HEADNECK — higher, 0.0523 ± 0.0084
- HOS BONE — within error, 0.0243 ± 0.00058
- MDAMB468 BREAST — higher, 0.0377 ± 0.0021
- SG27 HEADNECK — higher, 0.048 ± 0.017
- ZR751 BREAST — higher, 0.0287 ± 0.0031
